Experimental data: ChEMBL document CHEMBL2010722, “Structure-activity relationship study of beta-carboline derivatives as haspin kinase inhibitors” (Bioorg Med Chem Lett, 2012)
pIC50: −log10 of the molar value.

What was measured:
[1] = system: Liver; assay: Intrinsic clearance in mouse liver microsome at 3 uM; assay type: ADME; settings: microsomes
[2] = system: Tyrosine-protein kinase ABL1 (Homo sapiens), P00519 [E255K]; assay: Inhibition of ABL E255K mutant at 10 uM
[3] = biological target: Tyrosine-protein kinase receptor UFO (Homo sapiens) (UniProt P30530); assay: Inhibition of AXL at 10 uM
[4] = biological target: Ephrin type-A receptor 7 (Homo sapiens) (UniProt Q15375); assay: Inhibition of EPHA7 at 10 uM
[5] = biological target: Fibroblast growth factor receptor 1 (Homo sapiens) (UniProt P11362); assay: Inhibition of FGFR1 at 10 uM
[6] = system: Fibroblast growth factor receptor 3 (Homo sapiens), P22607 [K650M]; assay: Inhibition of FGFR3 K650M mutant at 10 uM
Sequence of Fibroblast growth factor receptor 3 (Homo sapiens), P22607 [K650M] (P22607 whole entry K650M): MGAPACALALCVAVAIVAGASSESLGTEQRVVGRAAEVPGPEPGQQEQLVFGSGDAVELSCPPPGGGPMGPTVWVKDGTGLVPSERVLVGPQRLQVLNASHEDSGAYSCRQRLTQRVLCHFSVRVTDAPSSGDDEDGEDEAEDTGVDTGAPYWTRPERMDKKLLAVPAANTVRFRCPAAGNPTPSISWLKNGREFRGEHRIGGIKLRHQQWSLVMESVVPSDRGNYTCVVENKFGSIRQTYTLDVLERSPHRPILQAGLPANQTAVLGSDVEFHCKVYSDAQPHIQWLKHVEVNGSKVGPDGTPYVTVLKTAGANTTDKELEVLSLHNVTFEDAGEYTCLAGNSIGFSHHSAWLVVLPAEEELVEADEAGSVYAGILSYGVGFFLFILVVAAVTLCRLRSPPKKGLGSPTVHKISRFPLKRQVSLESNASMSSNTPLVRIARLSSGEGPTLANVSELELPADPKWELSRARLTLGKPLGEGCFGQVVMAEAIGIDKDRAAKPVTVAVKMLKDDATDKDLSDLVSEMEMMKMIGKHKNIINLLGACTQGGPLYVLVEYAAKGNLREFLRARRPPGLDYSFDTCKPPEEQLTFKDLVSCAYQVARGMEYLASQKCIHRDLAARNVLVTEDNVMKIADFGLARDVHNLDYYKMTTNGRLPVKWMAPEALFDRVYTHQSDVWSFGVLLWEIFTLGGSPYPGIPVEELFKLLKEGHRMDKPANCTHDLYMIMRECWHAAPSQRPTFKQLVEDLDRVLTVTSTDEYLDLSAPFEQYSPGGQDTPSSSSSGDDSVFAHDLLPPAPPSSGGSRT

[7] = biological target: Vascular endothelial growth factor receptor 3 (Homo sapiens) (UniProt P35916); assay: Inhibition of FLT4 at 10 uM
[8] = biological target: Insulin-like growth factor 1 receptor (Homo sapiens) (UniProt P08069); assay: Inhibition of IGF1R at 10 uM
[9] = biological target: Vascular endothelial growth factor receptor 2 (Homo sapiens) (UniProt P35968); assay: Inhibition of KDR at 10 uM
Sequence of Vascular endothelial growth factor receptor 2 (Homo sapiens) (P35968 whole entry): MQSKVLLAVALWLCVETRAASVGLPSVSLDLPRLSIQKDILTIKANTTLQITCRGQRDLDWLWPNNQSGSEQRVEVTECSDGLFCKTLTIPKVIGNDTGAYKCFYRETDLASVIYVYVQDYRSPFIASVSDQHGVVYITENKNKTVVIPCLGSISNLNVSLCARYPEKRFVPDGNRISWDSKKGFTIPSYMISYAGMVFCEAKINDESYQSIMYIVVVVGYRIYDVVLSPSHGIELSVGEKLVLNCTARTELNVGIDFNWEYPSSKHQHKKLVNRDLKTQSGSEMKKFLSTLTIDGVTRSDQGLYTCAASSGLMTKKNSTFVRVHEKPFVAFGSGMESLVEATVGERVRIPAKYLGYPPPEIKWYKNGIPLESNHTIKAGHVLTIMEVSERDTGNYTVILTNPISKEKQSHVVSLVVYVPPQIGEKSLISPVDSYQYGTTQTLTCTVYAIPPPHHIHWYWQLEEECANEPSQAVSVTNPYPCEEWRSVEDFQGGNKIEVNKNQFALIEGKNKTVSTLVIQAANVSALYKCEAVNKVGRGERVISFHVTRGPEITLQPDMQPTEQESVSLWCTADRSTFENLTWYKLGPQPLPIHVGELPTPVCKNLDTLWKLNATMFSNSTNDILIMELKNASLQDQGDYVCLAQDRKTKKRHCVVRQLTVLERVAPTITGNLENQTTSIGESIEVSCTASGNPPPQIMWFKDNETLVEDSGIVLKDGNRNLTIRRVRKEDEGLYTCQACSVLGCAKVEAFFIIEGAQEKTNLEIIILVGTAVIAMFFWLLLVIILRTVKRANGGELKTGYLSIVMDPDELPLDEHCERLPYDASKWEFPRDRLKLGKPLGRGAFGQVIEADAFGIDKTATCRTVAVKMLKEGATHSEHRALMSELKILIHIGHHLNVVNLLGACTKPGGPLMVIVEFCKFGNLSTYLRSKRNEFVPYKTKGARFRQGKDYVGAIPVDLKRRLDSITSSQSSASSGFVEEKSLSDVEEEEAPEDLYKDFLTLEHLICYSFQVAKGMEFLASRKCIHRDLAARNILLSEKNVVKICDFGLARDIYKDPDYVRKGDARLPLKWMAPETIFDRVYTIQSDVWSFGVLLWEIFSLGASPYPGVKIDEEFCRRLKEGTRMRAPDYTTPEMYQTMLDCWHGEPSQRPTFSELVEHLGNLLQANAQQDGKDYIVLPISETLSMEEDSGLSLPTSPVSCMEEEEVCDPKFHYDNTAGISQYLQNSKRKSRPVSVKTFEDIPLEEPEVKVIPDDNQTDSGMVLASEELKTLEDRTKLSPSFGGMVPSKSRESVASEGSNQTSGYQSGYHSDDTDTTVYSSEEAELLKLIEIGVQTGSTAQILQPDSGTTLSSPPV

[10] = system: Mast/stem cell growth factor receptor Kit (Homo sapiens), P10721 [T670I]; assay: Inhibition of KIT T670I mutant at 10 uM
[11] = biological target: Muscle, skeletal receptor tyrosine-protein kinase (Homo sapiens) (UniProt O15146); assay: Inhibition of MUSK at 10 uM
[12] = biological target: NPM/ALK (Nucleophosmin/ALK tyrosine kinase receptor) (Homo sapiens) (UniProt Q9UM73+P06748); assay: Inhibition of NPM1-ALK at 10 uM; assay type: protein-complex assay
[13] = biological target: Proto-oncogene tyrosine-protein kinase ROS (Homo sapiens) (UniProt P08922); assay: Inhibition of ROS at 10 uM
[14] = biological target: Tyrosine-protein kinase ZAP-70 (Homo sapiens) (UniProt P43403); assay: Inhibition of ZAP70 at 10 uM
[15] = biological target: RAC-alpha serine/threonine-protein kinase (Homo sapiens) (UniProt P31749); assay: Inhibition of AKT1 at 10 uM
[16] = biological target: Calcium/calmodulin-dependent protein kinase type II subunit alpha (Homo sapiens) (UniProt Q9UQM7); assay: Inhibition of CaMK2a at 10 uM
Sequence of Calcium/calmodulin-dependent protein kinase type II subunit alpha (Homo sapiens) (Q9UQM7 whole entry): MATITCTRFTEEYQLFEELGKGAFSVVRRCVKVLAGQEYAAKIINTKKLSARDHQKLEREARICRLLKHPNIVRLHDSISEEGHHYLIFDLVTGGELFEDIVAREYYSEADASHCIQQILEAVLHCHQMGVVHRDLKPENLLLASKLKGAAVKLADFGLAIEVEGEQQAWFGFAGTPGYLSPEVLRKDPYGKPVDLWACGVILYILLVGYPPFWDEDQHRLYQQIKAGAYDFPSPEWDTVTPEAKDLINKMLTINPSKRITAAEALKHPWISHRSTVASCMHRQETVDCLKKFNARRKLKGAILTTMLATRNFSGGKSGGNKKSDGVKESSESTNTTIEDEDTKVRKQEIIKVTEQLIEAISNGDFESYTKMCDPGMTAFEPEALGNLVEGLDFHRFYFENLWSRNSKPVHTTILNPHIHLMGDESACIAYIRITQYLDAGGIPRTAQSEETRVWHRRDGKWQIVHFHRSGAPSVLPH

[17] = biological target: Cyclin-dependent kinase 1/cyclin B1 (Homo sapiens) (UniProt P06493+P14635); assay: Inhibition of CDC2-CycB1 at 10 uM; assay type: protein-complex assay
[18] = biological target: CDC7/DBF4 (Cell division cycle 7-related protein kinase/Activator of S phase kinase) (Homo sapiens) (UniProt Q9UBU7+O00311); assay: Inhibition of CDC7-Dbf4 at 10 uM; assay type: protein-complex assay
Sequence of CDC7/DBF4 (Cell division cycle 7-related protein kinase/Activator of S phase kinase) (Homo sapiens) (O00311 whole entry, looked up): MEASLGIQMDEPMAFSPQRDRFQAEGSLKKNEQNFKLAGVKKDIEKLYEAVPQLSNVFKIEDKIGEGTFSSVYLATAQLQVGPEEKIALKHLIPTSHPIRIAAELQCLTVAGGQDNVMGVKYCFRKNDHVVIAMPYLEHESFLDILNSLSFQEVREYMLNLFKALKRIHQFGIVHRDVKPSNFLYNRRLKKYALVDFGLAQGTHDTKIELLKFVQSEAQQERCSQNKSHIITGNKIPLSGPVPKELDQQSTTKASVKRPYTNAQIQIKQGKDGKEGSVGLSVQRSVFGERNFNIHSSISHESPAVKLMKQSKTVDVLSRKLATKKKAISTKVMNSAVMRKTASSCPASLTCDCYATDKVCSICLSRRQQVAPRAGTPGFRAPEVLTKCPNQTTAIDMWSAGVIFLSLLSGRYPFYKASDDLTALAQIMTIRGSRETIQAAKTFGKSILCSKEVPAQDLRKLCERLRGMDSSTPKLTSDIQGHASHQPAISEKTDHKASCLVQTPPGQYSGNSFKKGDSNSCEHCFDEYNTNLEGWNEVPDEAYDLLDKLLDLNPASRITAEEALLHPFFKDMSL
Sequence of CDC7/DBF4 (Cell division cycle 7-related protein kinase/Activator of S phase kinase) (Homo sapiens) (Q9UBU7 whole entry, looked up): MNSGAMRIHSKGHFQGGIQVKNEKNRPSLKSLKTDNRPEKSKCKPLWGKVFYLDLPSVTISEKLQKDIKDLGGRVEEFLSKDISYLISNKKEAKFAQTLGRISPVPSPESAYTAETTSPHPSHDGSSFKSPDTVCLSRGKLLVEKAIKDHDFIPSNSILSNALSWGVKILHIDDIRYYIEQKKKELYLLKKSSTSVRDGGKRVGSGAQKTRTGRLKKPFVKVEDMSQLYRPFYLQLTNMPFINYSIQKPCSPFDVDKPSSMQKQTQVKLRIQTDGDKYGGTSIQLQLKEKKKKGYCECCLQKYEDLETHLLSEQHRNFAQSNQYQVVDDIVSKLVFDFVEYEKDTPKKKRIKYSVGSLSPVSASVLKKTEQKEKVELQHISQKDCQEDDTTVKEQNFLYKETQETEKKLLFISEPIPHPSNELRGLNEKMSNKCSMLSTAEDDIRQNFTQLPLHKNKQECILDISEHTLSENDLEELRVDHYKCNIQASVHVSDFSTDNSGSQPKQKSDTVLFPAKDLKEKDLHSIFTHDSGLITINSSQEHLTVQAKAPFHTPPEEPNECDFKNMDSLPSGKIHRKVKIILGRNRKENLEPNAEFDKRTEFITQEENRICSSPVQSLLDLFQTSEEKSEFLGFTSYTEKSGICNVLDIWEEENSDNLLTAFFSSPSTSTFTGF

[19] = biological target: Cyclin-dependent kinase 2/cyclin A (Homo sapiens) (UniProt P24941+P20248+P78396); assay: Inhibition of CDK2-Cyclin A2 at 10 uM; assay type: protein-complex assay
[20] = biological target: Dual specificity protein kinase CLK3 (Homo sapiens) (UniProt P49761); assay: Inhibition of CLK3 at 10 uM
Sequence of Dual specificity protein kinase CLK3 (Homo sapiens) (P49761 whole entry, looked up): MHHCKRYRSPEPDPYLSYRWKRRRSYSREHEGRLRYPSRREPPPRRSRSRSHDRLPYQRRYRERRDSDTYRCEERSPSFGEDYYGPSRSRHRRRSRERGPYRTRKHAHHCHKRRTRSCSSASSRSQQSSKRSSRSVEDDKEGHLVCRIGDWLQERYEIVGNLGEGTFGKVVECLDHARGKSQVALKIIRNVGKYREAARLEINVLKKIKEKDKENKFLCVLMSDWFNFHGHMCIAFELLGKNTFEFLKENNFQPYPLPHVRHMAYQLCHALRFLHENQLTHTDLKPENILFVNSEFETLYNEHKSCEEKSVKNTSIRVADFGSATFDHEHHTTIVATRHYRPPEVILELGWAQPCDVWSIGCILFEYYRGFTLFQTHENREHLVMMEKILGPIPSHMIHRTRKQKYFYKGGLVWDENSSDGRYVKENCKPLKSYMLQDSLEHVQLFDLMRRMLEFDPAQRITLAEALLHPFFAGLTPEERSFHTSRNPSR

[21] = biological target: Mitogen-activated protein kinase kinase kinase 8 (Homo sapiens) (UniProt P41279); assay: Inhibition of COT at 10 uM
[22] = biological target: Serine/threonine-protein kinase LATS2 (Homo sapiens) (UniProt Q9NRM7); assay: Inhibition of LATS2 at 10 uM
[23] = biological target: Serine/threonine-protein kinase 10 (Homo sapiens) (UniProt O94804); assay: Inhibition of LOK at 10 uM
[24] = biological target: Dual specificity mitogen-activated protein kinase kinase 1 (Homo sapiens) (UniProt Q02750); assay: Inhibition of MAP2K1 at 10 uM
[25] = biological target: Mitogen-activated protein kinase kinase kinase kinase 2 (Homo sapiens) (UniProt Q12851); assay: Inhibition of MAP4K2 at 10 uM
[26] = biological target: MAP kinase-activated protein kinase 3 (Homo sapiens) (UniProt Q16644); assay: Inhibition of MAPKAPK3 at 10 uM
[27] = biological target: Serine/threonine-protein kinase 24 (Homo sapiens) (UniProt Q9Y6E0); assay: Inhibition of MST3 at 10 uM
[28] = biological target: Mitogen-activated protein kinase 11 (Homo sapiens) (UniProt Q15759); assay: Inhibition of p38beta at 10 uM
[29] = biological target: Serine/threonine-protein kinase PAK 6 (Homo sapiens) (UniProt Q9NQU5); assay: Inhibition of PAK6 at 10 uM
Sequence of Serine/threonine-protein kinase PAK 6 (Homo sapiens) (Q9NQU5 whole entry, looked up): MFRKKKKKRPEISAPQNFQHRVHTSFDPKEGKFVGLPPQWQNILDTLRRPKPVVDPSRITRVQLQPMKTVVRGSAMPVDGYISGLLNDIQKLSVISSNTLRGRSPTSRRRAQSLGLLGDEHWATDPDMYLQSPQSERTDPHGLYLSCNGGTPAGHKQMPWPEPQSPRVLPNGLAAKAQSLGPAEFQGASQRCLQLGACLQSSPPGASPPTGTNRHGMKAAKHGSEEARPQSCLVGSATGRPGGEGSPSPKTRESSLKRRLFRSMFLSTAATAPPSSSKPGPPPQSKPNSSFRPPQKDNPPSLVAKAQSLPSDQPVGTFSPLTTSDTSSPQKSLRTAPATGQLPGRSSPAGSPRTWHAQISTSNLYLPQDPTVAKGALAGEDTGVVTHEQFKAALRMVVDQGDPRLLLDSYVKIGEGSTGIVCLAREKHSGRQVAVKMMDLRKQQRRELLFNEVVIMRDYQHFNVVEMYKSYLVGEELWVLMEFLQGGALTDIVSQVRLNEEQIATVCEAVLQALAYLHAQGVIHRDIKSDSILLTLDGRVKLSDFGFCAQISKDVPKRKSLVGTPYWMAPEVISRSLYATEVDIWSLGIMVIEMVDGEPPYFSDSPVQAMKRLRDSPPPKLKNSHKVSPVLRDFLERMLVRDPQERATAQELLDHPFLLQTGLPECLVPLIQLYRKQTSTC

[30] = biological target: Serine/threonine-protein kinase N1 (Homo sapiens) (UniProt Q16512); assay: Inhibition of PKN1 at 10 uM
[31] = biological target: Serine/threonine-protein kinase PLK3 (Homo sapiens) (UniProt Q9H4B4); assay: Inhibition of PLK3 at 10 uM
[32] = biological target: Serine/threonine-protein kinase SIK1 (Homo sapiens) (UniProt P57059); assay: Inhibition of SIK at 10 uM
[33] = biological target: SRSF protein kinase 1 (Homo sapiens) (UniProt Q96SB4); assay: Inhibition of SRPK1 at 10 uM
[34] = biological target: Testis-specific serine/threonine-protein kinase 2 (Homo sapiens) (UniProt Q96PF2); assay: Inhibition of TSSK2 at 10 uM
[35] = biological target: T1, Serine/threonine-protein kinase haspin (Homo sapiens, UniProt Q8TF76)
T1 sequence (Q8TF76 whole entry): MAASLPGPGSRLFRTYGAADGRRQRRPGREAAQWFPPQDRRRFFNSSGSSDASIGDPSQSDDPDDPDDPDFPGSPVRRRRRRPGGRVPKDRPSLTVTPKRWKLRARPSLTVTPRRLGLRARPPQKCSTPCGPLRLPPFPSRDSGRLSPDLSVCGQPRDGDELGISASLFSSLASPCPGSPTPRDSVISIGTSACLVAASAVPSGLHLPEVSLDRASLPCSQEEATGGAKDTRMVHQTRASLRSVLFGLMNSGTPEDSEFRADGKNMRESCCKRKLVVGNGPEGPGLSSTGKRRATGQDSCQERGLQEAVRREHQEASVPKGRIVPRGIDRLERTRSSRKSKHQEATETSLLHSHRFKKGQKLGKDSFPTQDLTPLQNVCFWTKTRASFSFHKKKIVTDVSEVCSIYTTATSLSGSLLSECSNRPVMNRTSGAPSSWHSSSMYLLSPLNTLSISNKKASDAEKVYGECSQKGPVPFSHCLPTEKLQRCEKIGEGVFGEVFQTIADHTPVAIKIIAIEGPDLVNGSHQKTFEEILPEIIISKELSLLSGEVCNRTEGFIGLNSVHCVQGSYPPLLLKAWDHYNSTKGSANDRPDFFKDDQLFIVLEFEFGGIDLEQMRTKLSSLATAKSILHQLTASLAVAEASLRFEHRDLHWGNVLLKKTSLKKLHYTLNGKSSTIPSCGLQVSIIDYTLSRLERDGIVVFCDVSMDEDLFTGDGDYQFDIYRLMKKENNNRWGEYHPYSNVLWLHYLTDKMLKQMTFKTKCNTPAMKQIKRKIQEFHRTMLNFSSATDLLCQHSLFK

How did the CLH [1] turn out when COc1ccc2c3ccnc(C(F)(F)F)c3n(CCCCN)c2c1 was run?
Its CLH is 3.8 µL/min/mg.

What about the inhibition [2] of the same molecule?
Its inhibition is 0%.

What about the inhibition [3] of the same molecule?
Its inhibition is 34%.

And the inhibition [4]?
Its inhibition is 2%.

And the inhibition [5]?
The inhibition was 5%.

What about the inhibition [6] of the same molecule?
Its inhibition is 0%.

What about the inhibition [7] of the same molecule?
Its inhibition is 9%.

And the inhibition [8]?
The inhibition was 0%.

What about the inhibition [9] of the same molecule?
Its inhibition is 2%.

What about the inhibition [10] of the same molecule?
Its inhibition is 16%.

And the inhibition [11]?
Its inhibition is 42%.

And the inhibition [12]?
Its inhibition is 4%.

What about the inhibition [13] of the same molecule?
Its inhibition is 44%.

And the inhibition [14]?
Its inhibition is 3%.

What about the inhibition [15] of the same molecule?
The inhibition was 23%.

And the inhibition [16]?
Its inhibition is 53%.

What about the inhibition [17] of the same molecule?
Its inhibition is 55%.

And the inhibition [18]?
The inhibition was 14%.

And the inhibition [19]?
Its inhibition is 65%.

And the inhibition [20]?
Its inhibition is 37%.

And the inhibition [21]?
The inhibition was 7%.

And the inhibition [22]?
Its inhibition is 26%.

And the inhibition [23]?
The inhibition was 20%.

What about the inhibition [24] of the same molecule?
The inhibition was 16%.

What about the inhibition [25] of the same molecule?
Its inhibition is 75%.

And the inhibition [26]?
Its inhibition is 1%.

What about the inhibition [27] of the same molecule?
Its inhibition is 9%.

What about the inhibition [28] of the same molecule?
The inhibition was 5%.

And the inhibition [29]?
Its inhibition is 13%.

What about the inhibition [30] of the same molecule?
The inhibition was 52%.

What about the inhibition [31] of the same molecule?
Its inhibition is 10%.

What about the inhibition [32] of the same molecule?
The inhibition was 8%.

What about the inhibition [33] of the same molecule?
Its inhibition is 7%.

And the inhibition [34]?
The inhibition was 5%.

What about the pIC50 [35] of the same molecule?
The pIC50 was 7.00.
